From US9139568B2 (Merck Patent GmbH, priority 2011, dated 2015)

Assays:
P70S6K = P70S6K (Homo sapiens (Human), UniProt P23443, T412E); assay: P70S6K Enzyme Assay; format: biochemical; conditions: P70S6K T412E mutant, 24 μM ATP, mobility shift (Caliper)
Protocol: P70S6K inhibitor compounds are diluted and plated in 96 well plates. […] The reaction is incubated for 90 min at 25° C., before the addition of 10 mM EDTA to stop the reaction. The proportion of substrate and product (phosphorylated) peptide is analysed on a Caliper Life Sciences Lab Chip 3000, using a pressure of −1.4 psi, and upstream and downstream voltages of −3000 and −700 respectively. Product peaks are resolved before substrate peaks on the resulting chromatograms.

AKT = AKT (Homo sapiens (Human), UniProt P31749); assay: AKT Enyzme Assay; format: biochemical; conditions: His-AKT (Full Length), 160 uM ATP, mobility shift (Caliper)
Protocol: A TTP Mosquito liquid handling instrument is used to place 125 nl of the appropriate concentration of inhibitor in 100% DMSO (for a dose response curve calculation) into each well of a 384-well plate.
The reaction is incubated for 90 min at 25 C, and then stopped by the addition of 70 μl of Stop buffer (100 mM HEPES pH 7.5, 0.015% Brij-35, 10 mM EDTA (Sigma, E7889)).
The plate is read on a Caliper LC 3000 in an Off-Chip mobility shift assay format, using the following parameters for a 12-sipper chip: screening pressure −2.3 psi, upstream voltage −500, and downstream voltage −3000. These conditions cause unphosphorylated substrate and phosphorylated product peptide to resolve as separate peaks allowing direct measurement of percentage of conversion of substrate to product. The percent conversion can be plotted against concentration of inhibitor to produce a sigmoidal dose response curve, from which an IC50 can be calculated.

Sequence of P70S6K (P23443 1-421 T412E): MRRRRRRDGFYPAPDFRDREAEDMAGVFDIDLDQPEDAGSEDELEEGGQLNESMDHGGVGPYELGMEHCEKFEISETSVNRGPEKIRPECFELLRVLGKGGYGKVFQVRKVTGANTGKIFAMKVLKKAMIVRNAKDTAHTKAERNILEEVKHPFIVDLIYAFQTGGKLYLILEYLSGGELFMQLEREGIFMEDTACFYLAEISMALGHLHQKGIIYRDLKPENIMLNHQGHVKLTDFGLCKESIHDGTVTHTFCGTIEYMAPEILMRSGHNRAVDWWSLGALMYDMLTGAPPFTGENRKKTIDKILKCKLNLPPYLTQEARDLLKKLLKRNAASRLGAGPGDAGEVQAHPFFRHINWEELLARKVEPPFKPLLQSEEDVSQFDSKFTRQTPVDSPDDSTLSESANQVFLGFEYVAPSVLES
Sequence of AKT (P31749 whole entry): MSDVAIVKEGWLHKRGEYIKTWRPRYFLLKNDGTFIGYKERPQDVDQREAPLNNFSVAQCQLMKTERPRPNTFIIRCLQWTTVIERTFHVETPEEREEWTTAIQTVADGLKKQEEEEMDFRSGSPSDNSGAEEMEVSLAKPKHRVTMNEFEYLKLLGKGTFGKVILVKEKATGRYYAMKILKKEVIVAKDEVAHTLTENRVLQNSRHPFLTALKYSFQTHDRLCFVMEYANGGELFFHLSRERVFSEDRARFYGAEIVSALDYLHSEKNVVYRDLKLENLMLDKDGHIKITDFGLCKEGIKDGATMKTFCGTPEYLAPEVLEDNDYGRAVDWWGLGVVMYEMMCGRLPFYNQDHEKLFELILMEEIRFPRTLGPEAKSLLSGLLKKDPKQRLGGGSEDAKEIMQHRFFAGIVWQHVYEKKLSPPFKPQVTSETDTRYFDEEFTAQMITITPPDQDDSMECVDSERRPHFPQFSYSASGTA

Row | SMILES | IC50 (P70S6K) [nM] | IC50 (AKT) [nM]
1 | NC(=O)c1ccc(N2CCC(O)(c3ccccc3)C2)c2cncnc12 (racemic) [Example 66, 5-(3-hydroxy-3-phenylpyrrolidin-1-yl)quinazoline-8-carboxamide] | 1800 | > 100000
2 | NC(=O)c1ccc(N2CCN(c3ccc(F)c(Cl)c3)CC2)c2cncnc12 [Example 94, 5-[4-(3-chloro-4-fluorophenyl)-piperazin-1-yl]-quinazoline-8-carboxylic acid amide] | 12000 | > 100000
3 | NC(=O)c1ccc(N2CCN(c3ccc(F)c(F)c3)CC2)c2cncnc12 [Example 92, 5-[4-(3,4-difluoro-phenyl)-piperazin-1-yl]-quinazoline-8-carboxylic acid amide] | 1000 | > 100000
4 | Cc1ccc(Cl)cc1N1CCN(c2ccc(C(N)=O)c3ncncc23)CC1 [Example 111, 5-[4-(5-chloro-2-methylphenyl)-piperazin-1-yl]-quinazoline-8-carboxylic acid amide] | > 100000 | > 100000
5 | NC(=O)c1ccc(NCc2cccnc2)c2cncnc12 [Example 62, 5-((pyridin-3-ylmethyl)amino)quinazoline-8-carboxamide] | 1600 | 70000
6 | NC(=O)c1ccc(N2CCN(c3ccc(C(F)(F)F)cc3)CC2)c2cncnc12 [Example 90, 5-[4-(4-Trifluoromethyl-phenyl)-piperazin-1-yl]-quinazoline-8-carboxylic acid amide] | 24000 | > 100000
7 | NC(=O)c1ccc(N2CCC(OCc3ccccc3)C2)c2cncnc12 (racemic) [Example 65, 5-(3-(benzyloxy)pyrrolidin-1-yl)quinazoline-8-carboxamide] | 710 | > 100000
8 | NC(=O)c1ccc(NC2CCNCC2c2ccc(F)cc2)c2cncnc12 (centres unmarked) [Example 70, 5-((3-(4-fluorophenyl)piperidin-4-yl)amino)quinazoline-8-carboxamide] | 550 | 2500
9 | NC(=O)c1ccc(N2CCN(c3cccc(F)c3)CC2)c2cncnc12 [Example 95, 5-[4-(3-fluoro-phenyl)-piperazin-1-yl]-quinazoline-8-carboxylic acid amide] | 770 | 6400
10 | NC(=O)c1ccc(N2CCN(c3cccc(Cl)c3)CC2)c2cncnc12 [Example 96, 5-[4-(3-chloro-phenyl)-piperazin-1-yl]-quinazoline-8-carboxylic acid amide] | 10000 | > 100000
11 | CN(C)C(CNc1ccc(C(N)=O)c2ncncc12)c1cccc(Cl)c1 (racemic) [Example 68, 5-((2-(3-chlorophenyl)-2-(dimethylamino)ethyl)amino)quinazoline-8-carboxamide] | 2600 | > 100000
12 | NCC1CCCN(c2ccc(C(N)=O)c3ncncc23)C1 (racemic) [Example 56, 5-(3-(aminomethyl)piperidin-1-yl)quinazoline-8-carboxamide] | 56000 | > 100000
13 | NC(=O)c1ccc(N(CCc2ccccc2)[C@@H]2CCCNC2)c2cncnc12 [Example 105, 5-[phenethyl-[(3R)-3-piperidyl]amino]quinazoline-8-carboxamide] | 11000 | > 100000
14 | Cc1cccc(C2CCNCC2Nc2ccc(C(N)=O)c3ncncc23)c1 (centres unmarked) [Example 73, 5-((4-(m-tolyl)piperidin-3-yl)amino)quinazoline-8-carboxamide] | 390 | 9000
15 | NC(=O)c1ccc(NC[C@@H]2CCNC2)c2cncnc12 [Example 60, (R)-5-((pyrrolidin-3-ylmethyl)amino)quinazoline-8-carboxamide] | 4800 | > 100000

Stronger by IC50 (P70S6K), values ahead:

Row | IC50 (P70S6K) [nM] | IC50 (AKT) [nM] | SMILES
16 | 220 | 14000 | CN(CCc1ccccc1)c1ccc(C(N)=O)c2ncncc12 [Example 103, 5-[methyl(phenethyl)amino]quinazoline-8-carboxamide]
17 | 52 | 900 | NC(=O)c1ccc(N[C@@H]2CNCC[C@H]2c2ccc(F)cc2)c2cncnc12 (single isomer, unassigned) [Example 81]
18 | 120 | 2400 | NC(=O)c1ccc(NCCc2cccc(F)c2)c2cncnc12 [Example 99, 5-[2-(3-fluorophenyl)ethylamino]quinazoline-8-carboxamide]
19 | 50 | 850 | NC(=O)c1ccc(N[C@H]2CNCC[C@@H]2c2ccc(F)c(Cl)c2)c2cncnc12 (single isomer, unassigned) [Example 77]
20 | 290 | 4800 | NC(=O)c1ccc(NCCc2ccc(F)cc2)c2cncnc12 [Example 100, 5-[2-(4-fluorophenyl)ethylamino]quinazoline-8-carboxamide]
21 | 87 | > 100000 | NC(=O)c1ccc(NCCCCc2ccccc2)c2cncnc12 [Example 102, 5-(4-phenylbutylamino)quinazoline-8-carboxamide]
22 | 21 | 4500 | NC(=O)c1ccc(NC2CNCC2c2cccc(C(F)(F)F)c2)c2cncnc12 (centres unmarked) [Example 71, 5-((4-(3-(trifluoromethyl)phenyl)pyrrolidin-3-yl)amino)quinazoline-8-carboxamide]
23 | 190 | 8200 | Cc1cccc([C@@H]2CN(c3ccc(C(N)=O)c4ncncc34)C[C@H]2CO)c1 [Example 67, 5-((3S,4R)-3-(hydroxymethyl)-4-(m-tolyl)pyrrolidin-1-yl)quinazoline-8-carboxamide]
24 | 350 | 5700 | NC(=O)c1ccc(N[C@@H]2CNCC[C@H]2c2ccc(F)c(Cl)c2)c2cncnc12 (single isomer, unassigned) [Example 78]
25 | 100 | > 100000 | NC(=O)c1ccc(NC2CNCC2c2cccc(OC(F)(F)F)c2)c2cncnc12 (centres unmarked) [Example 72, 5-((4-(3-(trifluoromethoxy)phenyl)pyrrolidin-3-yl)amino)quinazoline-8-carboxamide]
26 | 8.1 | 130 | NC(=O)c1ccc(NC2CNCCC2c2ccc(Cl)c(F)c2)c2cncnc12 (centres unmarked) [Example 75, 5-((4-(4-chloro-3-fluorophenyl)piperidin-3-yl)amino)quinazoline-8-carboxamide]
27 | 290 | 2000 | NC(=O)c1ccc(NC2CNCCC2c2ccc(F)cc2)c2cncnc12 (centres unmarked) [Example 79, 5-((4-(4-fluorophenyl)piperidin-3-yl)amino)quinazoline-8-carboxamide]
28 | 59.2 | 12000 | NC(=O)c1ccc(NCc2cccc(Cl)c2)c2cncnc12 [Example 63, 5-((3-chlorobenzyl)amino)quinazoline-8-carboxamide]
